Data on four compounds can be found in patent publication US20210395239A1 (Hoffmann-La Roche Inc., priority 2018, published 2021).

One series addresses T1, CYP2D6 (Homo sapiens, UniProt P10635).
T1 construct: tissue BD-Gentest 452117; host or cells: human liver microsomes
As to the kind of experiment: CYP inhibition assay in human liver microsome, CYP2D6. As to conditions: human, human liver microsomes, probe dextromethorphan 5 μM, substrate dextromethorphan 5 μM, second value of 2C9/2D6/3A4. Format: in vitro ADME. A digest of the protocol: (§1)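 Pooled human liver microsomes with a substrate for each CYP were incubated with compound at 37 °C after NADPH addition, for 5 min (CYP2D6: 10 min), then quenched with acetonitrile containing labelled metabolite standards. Metabolite/internal-standard peak area ratios were measured by RapidFire MS/MS. % inhibition was scaled between DMSO and standard-inhibitor controls.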
(In general: Liver microsomes are a subcellular fraction often used to study metabolism.)

The next series has as its target T2, CYP2C9 (Homo sapiens, UniProt P11712).
T2 construct: tissue BD-Gentest 452117; host or cells: human liver microsomes
Briefly: CYP inhibition assay in human liver microsome, CYP2C9. The series is classed as in vitro ADME. As to conditions: human, human liver microsomes, probe diclofenac 5 μM, substrate diclofenac 5 μM, first value of 2C9/2D6/3A4. A digest of the protocol:
as §1

Another series addresses T3, human TLR7 (Homo sapiens, UniProt Q9NYK1).
T3 construct: host or cells: HEK293 (HEK-Blue hTLR7)
T3 sequence (Q9NYK1 27-1049): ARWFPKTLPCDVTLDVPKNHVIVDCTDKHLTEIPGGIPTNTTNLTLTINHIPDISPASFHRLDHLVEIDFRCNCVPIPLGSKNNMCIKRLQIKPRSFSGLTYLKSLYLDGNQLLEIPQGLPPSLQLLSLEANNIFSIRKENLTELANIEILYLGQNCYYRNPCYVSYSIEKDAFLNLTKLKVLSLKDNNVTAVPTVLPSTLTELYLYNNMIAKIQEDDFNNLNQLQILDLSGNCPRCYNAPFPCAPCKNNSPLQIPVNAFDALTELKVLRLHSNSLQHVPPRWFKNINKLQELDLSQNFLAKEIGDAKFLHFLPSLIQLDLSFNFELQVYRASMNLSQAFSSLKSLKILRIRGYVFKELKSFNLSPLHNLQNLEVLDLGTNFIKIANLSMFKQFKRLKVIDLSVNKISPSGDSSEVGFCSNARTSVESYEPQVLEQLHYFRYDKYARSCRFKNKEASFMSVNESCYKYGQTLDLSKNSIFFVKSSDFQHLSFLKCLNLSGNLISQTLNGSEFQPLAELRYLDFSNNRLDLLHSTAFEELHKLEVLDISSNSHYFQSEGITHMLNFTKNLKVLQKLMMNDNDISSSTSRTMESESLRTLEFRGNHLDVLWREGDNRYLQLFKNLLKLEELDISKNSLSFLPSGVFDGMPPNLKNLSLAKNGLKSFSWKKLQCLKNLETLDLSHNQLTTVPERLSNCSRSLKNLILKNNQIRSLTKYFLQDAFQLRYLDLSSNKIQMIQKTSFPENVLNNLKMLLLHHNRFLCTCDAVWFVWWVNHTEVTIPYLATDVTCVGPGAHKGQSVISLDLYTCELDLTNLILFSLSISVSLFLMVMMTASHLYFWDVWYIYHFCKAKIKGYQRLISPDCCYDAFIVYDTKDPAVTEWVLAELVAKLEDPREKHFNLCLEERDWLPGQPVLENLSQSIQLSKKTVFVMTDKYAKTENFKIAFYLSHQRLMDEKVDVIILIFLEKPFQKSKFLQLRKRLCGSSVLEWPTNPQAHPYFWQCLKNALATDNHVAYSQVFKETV
As to the kind of experiment: HEK293-Blue-hTLR-7 cells assay (SEAP reporter, R848 stimulation). The series is classed as cell-based. As to conditions: HEK293-Blue-hTLR7 cells, R848, 20 hrs; read-out: HEK/hTLR7 IC50. The procedure, abridged:
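HEK293-Blue-hTLR7 cells (NF-κB/AP-1-driven SEAP reporter) were stimulated with R848 alongside serially diluted compound at 1% final DMSO for 20 h at 37 °C. Supernatant SEAP was then developed with QUANTI-Blue for 2 h at 37 °C and absorbance read at 620–655 nm; antagonism is measured as reduced reporter signal.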

T1 sequence (P10635 whole entry): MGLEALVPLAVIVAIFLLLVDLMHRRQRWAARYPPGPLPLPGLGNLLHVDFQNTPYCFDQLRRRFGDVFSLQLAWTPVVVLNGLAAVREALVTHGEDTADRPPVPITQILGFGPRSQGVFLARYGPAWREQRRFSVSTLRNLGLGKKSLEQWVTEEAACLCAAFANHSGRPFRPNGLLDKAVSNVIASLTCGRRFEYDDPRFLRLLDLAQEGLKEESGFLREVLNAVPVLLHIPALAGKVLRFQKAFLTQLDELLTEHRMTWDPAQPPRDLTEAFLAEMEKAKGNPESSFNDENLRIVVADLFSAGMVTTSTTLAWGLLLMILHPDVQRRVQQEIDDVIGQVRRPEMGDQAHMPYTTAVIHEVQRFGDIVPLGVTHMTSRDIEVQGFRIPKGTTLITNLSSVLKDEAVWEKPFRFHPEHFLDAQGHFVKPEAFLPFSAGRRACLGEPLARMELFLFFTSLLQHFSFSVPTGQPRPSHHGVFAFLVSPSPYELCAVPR
T2 sequence (P11712 whole entry): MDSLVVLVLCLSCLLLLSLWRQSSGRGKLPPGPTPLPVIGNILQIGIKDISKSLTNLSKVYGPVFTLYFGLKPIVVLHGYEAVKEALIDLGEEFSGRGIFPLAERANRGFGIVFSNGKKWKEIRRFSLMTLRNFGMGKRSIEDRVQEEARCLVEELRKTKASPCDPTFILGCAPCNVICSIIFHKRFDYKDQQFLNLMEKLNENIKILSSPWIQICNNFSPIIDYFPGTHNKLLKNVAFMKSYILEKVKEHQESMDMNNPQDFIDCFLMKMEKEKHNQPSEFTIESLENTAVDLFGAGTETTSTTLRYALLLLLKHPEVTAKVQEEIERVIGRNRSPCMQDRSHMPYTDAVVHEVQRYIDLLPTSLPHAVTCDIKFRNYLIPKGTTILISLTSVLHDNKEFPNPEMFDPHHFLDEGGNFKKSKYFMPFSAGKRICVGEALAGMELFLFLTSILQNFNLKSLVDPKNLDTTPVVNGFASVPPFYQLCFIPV

Usually inhibition stands for the relative decrease from the control value, in per cent. Turning to `C[C@@H]1CN(c2ccc(C#N)c3ncccc23)C[C@H](CN2CCN(c3nc(N4CCNCC4)ncc3F)CC2)O1` [Example 45, 5-[(2S,6R)-2-[[4-(5-fluoro-2-piperazin-1-yl-pyrimidin-4-yl)piperazin-1-yl]methyl]-6-methyl-morpholin-4-yl]quinoline-8-carbonitrile], the inhibition at 10 min, 10 µM against CYP2D6 was 5%. The inhibition at 5 min, 10 µM against CYP2C9 is -3.5%. In addition, the IC50 at human TLR7 was found to be 15 nM.

`C[C@@H]1CN(c2ccc(C#N)n3ncc(F)c23)C[C@H](CN2CCN(c3ccc(N[C@H]4CNC[C@H]4F)nc3)CC2)O1` [Example 167, 3-fluoro-4-[(2S,6R)-2-[[4-[6-[[(3S,4R)-4-fluoropyrrolidin-3-yl]amino]-3-pyridyl]piperazin-1-yl]methyl]-6-methyl-morpholin-4-yl]pyrazolo[1,5-a]pyridine-7-carbonitrile]: at CYP2D6, the inhibition at 10 min, 10 µM amounted to 11.5%. Moreover, the inhibition at 5 min, 10 µM against CYP2C9 is -1%. In addition, the IC50 at human TLR7 is 14 nM.

On to `C[C@@H]1CN(c2ccc(C#N)n3ncc(F)c23)C[C@H](CN2CCN(c3ccc(N4C[C@H]5NCCO[C@@H]5C4)nc3)CC2)O1` [Example 168, 4-[(2S,6R)-2-[[4-[6-[(4aR,7aR)-3,4,4a,5,7,7a-hexahydro-2H-pyrrolo[3,4-b][1,4]oxazin-6-yl]-3-pyridyl]piperazin-1-yl]methyl]-6-methyl-morpholin-4-yl]-3-fluoro-pyrazolo[1,5-a]pyridine-7-carbonitrile], for which the inhibition at 10 min, 10 µM against CYP2D6 is 1.5%. Moreover, the inhibition at 5 min, 10 µM on CYP2C9 was -8%. Moreover, the IC50 on human TLR7 turned out to be 20 nM.

Turning to `C[C@@H]1CN(c2ccc(C#N)n3ncc(F)c23)C[C@H](CN2CCN(c3ccc(N4CC5(CN(C)C5)C4)nc3)CC2)O1` [Example 170, 3-fluoro-4-[(2R,6S)-2-methyl-6-[[4-[6-(6-methyl-2,6-diazaspiro[3.3]heptan-2-yl)-3-pyridyl]piperazin-1-yl]methyl]morpholin-4-yl]pyrazolo[1,5-a]pyridine-7-carbonitrile], the inhibition at 10 min, 10 µM on CYP2D6 came to 0%. Moreover, on CYP2C9, the inhibition at 5 min, 10 µM is -1%. The IC50 at human TLR7 was 6 nM.
